Entries after “also recorded” stand apart in the source; their conditions may differ.
Experiment: Rheological characterization of hydrogel compositions (shear and extensional rheology)
Type: physicochemical
Settings: for change of crossover frequency compared to the Sangelose only hydrogel: 3 wt % Sangelose with 0.75 wt % second agent (αCD 0.05 wt %), 25° C.; for storage modulus (G′) compared to Sangelose only hydrogels / tan (delta) compared to Sangelose only hydrogels: measured at 0.1 rad·s^−1, 3 wt % Sangelose with second agent; for G′ values compared to hydrogels comprising only Sangelose (Tween comparison): at a frequency of 10 rad·s^−1, 3 wt % Sangelose, 0.75 wt % Tween
Method: Rheological characterization was performed using a 20-mm diameter serrated parallel plate at a 500-μm gap on a TA Instruments DHR-2 stress-controlled rheometer. All measurements were performed at 25° C. Frequency sweep measurements were performed at a constant 1% strain. Steady shear flow sweeps were performed from high to low shear rates. Stress sweeps were performed from low to high with steady-state sensing and yield stress values defined as the stress at which the viscosity decreases 10% from the maximum. Amplitude sweep measurements were performed at a frequency of 0.1 rad·s^-1. P values are calculated with a one-way ANOVA followed by post hoc Tukey multiple comparison test unless otherwise noted. Extensional rheology was performed on a TA Instruments ARES-G2 rheometer in axial mode using an 8-mm parallel plate geometry (R=4 mm) at a H=4 mm gap, resulting in an aspect ratio of H/R=1. A sample volume of 400 μl was loaded for each of the three replicated measurements. All experiments were performed at 25° C. Samples of the hydrogel compositions were loaded and tested immediately within seconds to minimize dehydration. […] (exponential) strain rates were applied at three different strain rates.

| Molecule | change of crossover frequency compared to the Sangelose only hydrogel | storage modulus (G′) compared to Sangelose only hydrogels | tan (delta) compared to Sangelose only hydrogels | G′ values compared to hydrogels comprising only Sangelose (Tween comparison) |
| --- | --- | --- | --- | --- |
| OCC1O[C@@H]2O[C@@H]3C(CO)O[C@H](O[C@@H]4C(CO)O[C@H](O[C@@H]5C(CO)O[C@H](O[C@@H]6C(CO)O[C@H](O[C@@H]7C(CO)O[C@H](O[C@H]1[C@H](O)[C@H]2O)[C@H](O)[C@H]7O)[C@H](O)[C@H]6O)[C@H](O)[C@H]5O)[C@H](O)[C@H]4O)[C@H](O)[C@H]3O (stereo partly drawn) [αCD, α-cyclodextrin] | shift rightward | lower than the storage modulus of the Sangelose only hydrogels | higher than the tan (delta) values of the Sangelose only hydrogels |  |
| Span 20 | did not change the crossover frequency |  |  |  |
| polyoxyethylene (20) sorbitan monolaurate [Tween 20] | shift rightward | lower than the storage modulus of the Sangelose only hydrogels | higher than the tan (delta) values of the Sangelose only hydrogels; also recorded: significantly higher tan (delta) values | lower G′ values |
| polyoxyethylene (20) sorbitan monooleate [Tween 80] | shift rightward | lower than the storage modulus of the Sangelose only hydrogels | higher than the tan (delta) values of the Sangelose only hydrogels; also recorded: significantly higher tan (delta) values | lower G′ values |
| polyoxyethylene (20) sorbitan monopalmitate [Tween 40] |  |  | significantly higher tan (delta) values | lower G′ values |

Reference: US20260166114A1, “DYNAMIC HYDROGEL COMPOSITIONS” (The Board of Trustees of the Leland Stanford Junior …, priority 2022, published 2026)
